Data on 6 compounds can be found in patent US7579504B2, “ABCA1 elevating compounds” (Gilead Sciences, Inc., priority 2005, dated 2009).

The test system of this assay is ABCA1 mRNA. Briefly: ABCA1 mRNA induction in THP-1 cells, QuantiGene branched DNA assay. The class given is cell-based. The following applies: Homo sapiens, 18-20 hours, read-out: ABCA1 Induction Fold Increase over DMSO Vehicle. On the procedure: Modulation of expression of ABCA1 mRNA levels by the compounds of the invention was determined in the following assays.
Induction of ABC1 in THP-1 cells, was measured using QuantiGene® branched DNA assay as per manufacturer's instructions. Cultures of THP-1 were grown to subconfluence in DMEM/10% FBS before replacement with DMEM/BSA and 10 and 3 μM concentrations of the test compounds in DMSO for 18-20 hours. After treatment of cells with compounds, the cells were lysed with lysis buffer at 37° C. for 20 minutes. The cell lysate and ABCA1 specific probe (Genospectra, Inc., Fremont, Calif.) mix were added to the 96 well capture plate and hybridized at 53° C. for 16-18 hours. The signal was amplified using the amplifier and label probes provided with the QuantiGene® assay followed by addition of a luminescent alkaline phosphatase substrate, dioxitane. Luminescence was quantified in Victor V plate reader.
Step 1 • Cells are lysed to release mRNA in the presence of target probes. Target mRNA from lysed cells was then captured by hybridization and transferred to the Capture Plate.
Step 2 • Signal amplification was performed by hybridization of the bDNA Amplifier and Label Probe.
Step 3 • Addition of chemiluminescence substrate yielded a QuantiGene® signal proportional to the amount of mRNA present in the sample.
Table 1 presents the relative fold increase in ABCA1 expression over DMSO for compounds of the invention when tested at a concentration of 10 μM.
In the case of `Cc1ccc(CNC(=O)C2CCC(CN(Cc3ccccc3)S(=O)(=O)c3ccc(F)c(Cl)c3)CC2)cc1` (stereo not drawn) [Compound 40, [4-({[(3-chloro-4-fluorophenyl)sulfonyl]benzylamino}methyl)cyclohexyl]-N-[(4-methylphenyl)methyl]carboxamide], the fold induction at 10 µM is 2.6.

Regarding `Cc1ccc(CNC(=O)C2CCC(CN(Cc3ccccc3)S(=O)(=O)c3cc(Cl)cc(Cl)c3)CC2)cc1` (stereo not drawn) [Compound 32, [4-({[(3,5-dichlorophenyl)sulfonyl]benzylamino}methyl)cyclohexyl]-N-[(4-methylphenyl)methyl]carboxamide], the fold induction at 10 µM was 4.

Take `Cc1ccc(CNC(=O)C2CCC(CN(Cc3ccccc3)S(=O)(=O)c3cc(F)cc(F)c3)CC2)cc1` (stereo not drawn) [Compound 17, [4-({[(3,5-difluorophenyl)sulfonyl]benzylamino}methyl)cyclohexyl]-N-[(4-methylphenyl)methyl]carboxamide]: the fold induction at 10 µM was 4.5.

Take `Cc1ccc(CNC(=O)[C@H]2CC[C@H](CN([C@@H](C)c3ccccc3)S(=O)(=O)c3ccccc3)CC2)cc1` [Compound 6, (4-{[((1S)-1-phenylethyl)(phenylsulfonyl)amino]methyl}cyclohexyl)-N-[(4-methylphenyl)methyl]carboxamide]: the fold induction at 10 µM stood at 3.2.

As for `Cc1ccc(CNC(=O)C2CCC(CN(Cc3ccccc3)S(=O)(=O)c3ccc(C)cc3)CC2)cc1` (stereo not drawn) [Compound 43, N-[(4-methylphenyl)methyl][4-({[(4-methylphenyl)sulfonyl]benzylamino}methyl)cyclohexyl]carboxamide], the fold induction at 10 µM came to 5.4.

As to `Cc1ccc(CNC(=O)C2CCC(CN(Cc3ccccc3)S(=O)(=O)c3cc(F)ccc3F)CC2)cc1` (stereo not drawn) [Compound 19, [4-({[(2,5-difluorophenyl)sulfonyl]benzylamino}methyl)cyclohexyl]-N-[(4-methylphenyl)methyl]carboxamide], the fold induction at 10 µM came out at 4.9.
